Assays:
Botrytis cinerea = assay: Botrytis test (beans) / protective; type: in vivo; conditions: protective spray on Phaseolus vulgaris, inoculation after 24 h, lesion size rated 3 days after inoculation; compared with Tetramethyl-thiuramidisulfid
Excerpt: Botrytis-Test (Bohnen) / protektiv
• Lösungsmittel: 4,7 Gewichtsteile Aceton • Dispergiermittel: 0,3 Gewichtsteile Alkyl-arylpolyglykoläther • Wasser: 95,0 Gewichtsteile
Man vermischt die für die gewünschte Wirkstoffkonzentration in der Spritzflüssigkeit nötige Wirkstoffmenge mit der angegebenen Menge des Lösungsmittels und verdünnt das Konzentrat mit der angegebenen Menge Wasser, welches die genannten Zusätze enthält.
Mit der Spritzflüssigkeit bespritzt man Pflanzen von Phaseolus vulgaris im 2-Blattstadium bis zur Tropfnässe. Nach 24 Stunden werden auf jedes Blatt 2 kleine mit Botrytis cinerea bewachsene Agarstückchen aufgelegt. Die inokulierten Pflanzen werden in einer abgedunkelten, feuchten Kammer bei 20°C aufgestellt. 3 Tage nach der Inokulation wird die Größe der Befallsflecken auf den Blättern bonitiert.
Die erhaltenen Boniturwerte werden auf Prozent Befall umgerechnet. 0 % bedeutet keinen Befall, 100 % bedeutet, daß der Befallsfleck vollständig ausgebildet ist.

Pellicularia sasakii = assay: Pellicularia test (rice plants); type: in vivo; conditions: spray on rice plants, infection of leaf sheaths rated after 5 to 8 days; compared with Zinksalz der Athylenbis-dithiocarbamidsäure
Excerpt: • Lösungsmittel: 11,75 Gewichtsteile Aceton • Dispergiermittel: 0,75 Gewichtsteile Alkyl-arylpolyglykoläther • Wasser: 987,50 Gewichtsteile • andere Zusätze: - Gewichtsteile -
Man vermischt die für die gewünschte Wirkstoffkonzentration in der Spritzflüssigkeit nötige Wirkstoffmenge mit der angegebenen Menge des Lösungsmittels und des Dispergiermittels und verdünnt das Konzentrat mit der angegebenen Menge Wasser.
Mit der Spritzflüssigkeit bespritzt man 30 etwa 2-4 Wochen alte Reispflanzen bis zur Tropfnässe. Die Pflanzen verbleiben bis zum Abtrocknen in einem Gewächshaus bei Temperaturen von 22 bis 24°C und einer relativen Luftfeuchtigkeit von etwa 70 %. Die Pflanzen werden mit einer auf Malzagar gezogenen Kultur von Pellicularia sasakii inokuliert und bei 28 bis 30°C sowie 100 % relativer Luftfeuchtigkeit aufgestellt.
Bei den mit Pellicularia sasakii infizierten Pflanzen wird der Befall nach 5 bis 8 Tagen an den Blattscheiden ebenfalls im Verhältnis zur unbehandelten, aber infizierten Kontrolle bestimmt. Die Auswertung erfolgt in Wertzahlen von 1 bis 9. 1 bedeutet 100%ige Wirkung, 3= gute Wirkung, 5 = mäßige Wirkung und 9 = keine Wirkung.

Q: Which results are given for `O=C1CC(C2C=CCC2)C(=O)N1c1cc(Cl)cc(Cl)c1` (centres unmarked) [Beispiel 1, N-(3,5-Dichlorphenyl)-△ ^2-cyclopenten-1-yl-bernsteinsäureimid]?
A: Wirkung (Botrytis cinerea): gute, dem bekannten Tetramethyl-thiuramidisulfid überlegene Wirkung; Wirkung (Pellicularia sasakii): gute, dem bekannten Zinksalz der Athylenbis-dithiocarbamidsäure überlegene Wirkung
